# Experimental data as given in BindingDB's records for doi:10.1002/cbic.200900108 (University of British Columbia, 2009).
# pIC50, pKi: −log10 of the molar value.
# Target: T1, Trans-sialidase (Trypanosoma cruzi, UniProt Q26966)
# T1 sequence (Q26966 whole entry): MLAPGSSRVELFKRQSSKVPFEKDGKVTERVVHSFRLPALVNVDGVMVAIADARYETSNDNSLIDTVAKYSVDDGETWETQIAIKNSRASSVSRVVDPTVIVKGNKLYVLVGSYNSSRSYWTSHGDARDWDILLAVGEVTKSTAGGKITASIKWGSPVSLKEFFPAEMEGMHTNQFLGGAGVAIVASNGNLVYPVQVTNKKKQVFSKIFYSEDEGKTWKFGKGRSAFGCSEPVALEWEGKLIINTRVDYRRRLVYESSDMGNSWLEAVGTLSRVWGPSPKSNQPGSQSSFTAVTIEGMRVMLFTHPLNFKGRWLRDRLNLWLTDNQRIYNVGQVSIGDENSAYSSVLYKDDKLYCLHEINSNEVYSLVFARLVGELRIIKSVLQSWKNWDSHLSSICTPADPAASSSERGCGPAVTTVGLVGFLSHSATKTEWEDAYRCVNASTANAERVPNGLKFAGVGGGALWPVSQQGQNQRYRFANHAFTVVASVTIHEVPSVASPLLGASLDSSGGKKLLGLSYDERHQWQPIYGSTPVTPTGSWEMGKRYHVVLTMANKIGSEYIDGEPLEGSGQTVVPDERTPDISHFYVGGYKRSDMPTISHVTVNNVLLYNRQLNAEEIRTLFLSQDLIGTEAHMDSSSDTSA
# Test: Inhibition Assay
# Details: pH 7.6; 35 °C
# Text: Inhibition assay using trans-sialidase, a membrane-associated protein.
pIC50,pKi,Structure (SMILES)
5.60,5.43,Cc1ccc(S(=O)(=O)Nc2cccc(C(=O)/C=C/c3ccc(O)c(O)c3)c2)cc1
6.05,5.34,Cc1ccc(S(=O)(=O)Nc2ccc(C(=O)/C=C/c3ccc(O)c(O)c3)cc2)cc1
6.22,6.40,"Cc1ccc(S(=O)(=O)N2c3ccccc3C(=O)/C(=C/c3ccc(O)c(O)c3)C2c2ccc(O)c(O)c2)cc1 (centres undefined) [Quinolinone derivative, 9]"
4.52,–,"Cc1ccc(S(=O)(=O)N2c3ccccc3C(=O)/C(=C/c3ccc(O)cc3)C2c2ccc(O)cc2)cc1 (centres undefined) [Quinolinone derivative, 8]"
4.43,–,"Cc1ccc(S(=O)(=O)Nc2cccc(C(=O)/C=C/c3ccc(O)cc3)c2)cc1 [Sulfonamide chalcone, 6]"
4.14,–,Cc1ccc(S(=O)(=O)Nc2ccc(C(=O)/C=C/c3ccc(O)cc3)cc2)cc1
